The values that follow come from patent publication US20150223675A1, “LUMINAL ADMINISTRATION OF TAG MOLECULES FOR DIAGNOSTIC APPLICATIONS” (GIVEN IMAGING LTD., priority 2012, published 2015).

“And” between values parts separate entries of the source, which are not always exact repeats. Identical values can stand only once.

Data set [1] in a line: Gastric gavage of dye to mice; organ fluorescence (liver, spleen, heart, lungs, kidneys, brain) by fluorescent camera. It counts as in vivo. The settings on record: 5 hours later. As to the method:
4 μg of IR-783 dissolved in 200 μl PBS were introduced into mice stomach by gastric gavage. Five hours later, the mice were sacrificed and liver, spleen, heart, lungs, kidneys and brain were collected and measured for fluorescence by a fluorescent camera setup. […] Grey levels of the organs are indicated by the numbers on the fluorescent pictures next to the imaged organs, e.g., grey level in the liver was 4000 in two mice and 2500 in a third mouse, and grey levels in the kidneys were 3500, 200 and 1200, respectively.

The test system of the next data set is tumors. The settings on record: 24 hours after dye administration by injection; prior art; cited from earlier work.
In another data set the test system is human colorectal tumors. Put plainly: Luminal (rectal, minicolonoscope) administration of dye to orthotopic mice; fluorescence of tumor and surrounding colon tissue by fluorescent camera, with histopathology. The settings on record: for fluorescent labeling of tumor exposed to the colon lumen: tumor confirmed by histopathology. In kind it is in vivo, mouse. As to the method:
Orthotopic mice with human colorectal tumors in their colons were used for […] administration of the IR-783 derivative—IR-783-S-PH-COOH. 4 μg of the IR-783-S-PH-COOH dissolved in 200 μl PBS were introduced into the colon of the mouse via minicolonoscope inserted through the rectum. The IR-783-S-PH-COOH solution was incubated in the colon for 20 minutes and then washed out with 5 ml PBS inserted through the rectum. Four hours later, mice were sacrificed and the fluorescence of the tumor and the surrounding colon tissue was measured by a fluorescent camera setup. Histopathological examination was performed on paraffin fixed colonic tissue specimens.
Orthotopic mice with human colorectal tumors in their colons were used for luminal administration of IR-783. 4 μg of IR-783 dissolved in 200 μl PBS were introduced into the colon of the mouse via a minicolonoscope inserted through the rectum. The IR-783 solution was incubated in the colon for 20 minutes and then washed out with 5 ml of PBS. 4 h later, the mice were sacrificed and the fluorescence of the tumor and the surrounding colon was measured by a fluorescent camera setup. Histopathological examination was performed on paraffin fixed colonic tissue specimens.

Where [2] appears, read: 4 μg in 200 μl PBS by gastric gavage, individual mice.
The mark [3] stands for this setting: 4 μg in 200 μl PBS into colon, 20 min incubation, 4 h later.

Turning to `CC1(C)C(=CC=C2CCCC(C=CC3=[N+](CCCCS(=O)(=O)[O-])c4ccccc4C3(C)C)=C2Cl)N(CCCCS(=O)(=O)[O-])c2ccccc21.[Na+]` [IR-783], in data set [1] (4 μg by gastric gavage, liver, spleen, heart, lungs, kidneys, brain examined), the “organs in which fluorescence was detected” value is “detected in the liver and kidneys”. Besides, in data set [1] (setting [2]), the “grey level in the liver” value was 4000 and 2500; the “grey levels in the kidneys” value is 3500 and 200 and 1200. The “dye concentration in tumors compared to normal body tissue” value in the data set on tumors was “much higher in tumors”. For the same molecule, in the data set with human colorectal tumors (setting [3]), the “fluorescent labeling of tumor exposed to the colon lumen” value is “intensely labeled”. The “fluorescent labeling of tumors developed below the murine mucosal layer (not exposed to colon lumen)” value in the data set with human colorectal tumors (4 μg into colon, 20 min incubation, 4 h later, FIG. 6B) is “not labeled”.

For the molecule IR-783-S-PH-COOH, in the data set with human colorectal tumors (setting [3]), the “fluorescent labeling of tumor exposed to the colon lumen” value was “intensely labeled”. Moreover, the “tumor to background ratio” value in the data set with human colorectal tumors (4 μg in 200 μl PBS into colon, 20 min incubation, washed out, measured 4 h later, 1 second exposure, histopathologically confirmed tumor) is 60. Moreover, the “fluorescent labeling of non-cancerous lymphatic tissue region” value in the data set with human colorectal tumors (4 μg into colon, 4 h later, suspected region with no tumor cells) is listed as “not labeled”.
